Assay results from patent US7163800B2, “Methods of screening compositions for G protein-coupled receptor desensitization inhibitory activity” (Molecular Devices Corporation, priority 2000, dated 2007).

Tests used:
[1] = target: HA-tagged human β2-adrenergic receptor (human) (UniProt P07550)
[2] = target: HA-tagged human β2-adrenergic receptor (β2AR) (Homo sapiens, UniProt P07550); test: arrestin-GFP localization (Fgrains) assay in U20S-β2AR/ArrGFP cells, isoproterenol stimulated; conditions: 100 nM isoproterenol
Experimental: Each of the fifteen compounds was separately screened for GPCR desensitization inhibitory activity against HA-tagged human β2-adrenergic receptor (β2AR) and against human vasopressin V2 receptor (V2R). In addition, the effects of temperature and carbon dioxide (CO2) were evaluated with respect to each compound.

β2AR and V2R = conditions: inhibitory activity shown for both β2AR and V2R
From the text: Each of the fifteen compounds was separately screened for GPCR desensitization inhibitory activity against HA-tagged human β2-adrenergic receptor (β2AR) and against human vasopressin V2 receptor (V2R).
As indicated by the Fgrains values for the cells in the Basal and Stimulated control wells, the Fgrains value determined by the IN Cell Analyzer 3000 in this example was functionally a measure of the average extent of desensitization in the cells in each well.

[3] = target: human vasopressin V2 receptor (V2R) (Homo sapiens, UniProt P30518); test: arrestin-GFP localization (Fgrains) assay in U20S-V2R/ArrGFP cells, arginine vasopressin stimulated; type: cell-based; conditions: 100 nM arginine vasopressin
Experimental: The assay was carried out using two different “double stable” human osteosarcoma cell (U20S) lines. […] The other cell line (U20S-V2R/ArrGFP) stably expressed V2R and the same arrestin-GFP conjugate.
The two cell lines (U20S-β2AR/ArrGFP and U20S-V2R/ArrGFP) were separately plated at 7000 cells/well on 384 well glass bottom plates. Two plates of U20S-β2AR/ArrGFP cells were prepared and two plates of U20S-V2R/ArrGFP cells were prepared.
Growth media was replaced with serum free media (i.e., Eagle's minimum essential medium (EMEM) buffered with 10 mM HEPES (N-2-Hydroxyethylpiperazine-N′-2-ethanesulfonic acid)) 24 hours after plating of the cells.
Each test compound was solvated using 100% dimethyl sulfoxide (DMSO). Multiple solutions of each compound were prepared at varying concentrations for testing in separate wells of each plate. If needed, the solutions were sonicated and heated to increase solubility. After preparation of the compound solutions, they were shielded from light.
Each of the solutions of varying concentrations of the fifteen compounds was added to a well on each of the four plates. The β2AR RT and V2R RT plates were incubated for 30 minutes at room temperature and atmospheric CO2.
Agonist was then added to each well. […] The β2AR RT and V2R RT plates were incubated for 30 minutes at room temperature and atmospheric CO2.
Each assay was then terminated using 1% paraformaldehyde containing 1 μM DRAQ5 DNA probe to fix the cells. The cells were analyzed using a pre-production model (alpha unit) of the IN Cell Analyzer 3000 (Amersham Biosciences), which is a line scanning, confocal imaging system. The IN Cell Analyzer 3000 was used to quantitate the localization of the arrestin-GFP conjugate for the cells in each well using the Amersham Biosciences granularity analysis GRNO algorithm. This algorithm finds the nucleus of cells and then dilates out a specified distance in which fluorescent spots or “grains” of arrestin-GFP localization are identified based on size and fluorescent intensity. The average of the fluorescent intensity of the identified grains per cell in an acquired image (i.e., Fgrains) was determined for each well on the plates.
The graphs for each compound as well as for the propanolol control are illustrated in FIGS. 7–22.
The curve-fitting program allowed the minimum and maximum values as well as the slope and EC50 values to vary rather than fixing the values to specified or collected values.

[4] = B2AR CO2 plate: 37° C., 5% CO2/95% O2
[5] = B2AR RT plate: room temperature, atmospheric CO2
[6] = EC50, B2AR CO2 plate: 37° C., 5% CO2/95% O2
[7] = EC50, B2AR RT plate: room temperature, atmospheric CO2
[8] = V2R CO2 plate: 37° C., 5% CO2/95% O2
[9] = V2R RT plate: room temperature, atmospheric CO2

Sequence of HA-tagged human β2-adrenergic receptor (β2AR) (P07550 whole entry): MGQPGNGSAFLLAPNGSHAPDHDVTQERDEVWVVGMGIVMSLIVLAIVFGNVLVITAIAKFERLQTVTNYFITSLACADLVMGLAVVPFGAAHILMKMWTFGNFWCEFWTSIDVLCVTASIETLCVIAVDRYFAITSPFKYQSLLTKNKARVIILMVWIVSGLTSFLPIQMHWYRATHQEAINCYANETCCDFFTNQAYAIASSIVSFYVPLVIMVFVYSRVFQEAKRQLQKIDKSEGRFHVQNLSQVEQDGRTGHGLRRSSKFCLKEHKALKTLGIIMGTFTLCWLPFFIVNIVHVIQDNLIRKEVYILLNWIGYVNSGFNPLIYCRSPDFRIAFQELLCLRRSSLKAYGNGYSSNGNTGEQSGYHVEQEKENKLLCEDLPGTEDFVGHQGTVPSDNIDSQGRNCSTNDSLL
Sequence of human vasopressin V2 receptor (V2R) (P30518 whole entry): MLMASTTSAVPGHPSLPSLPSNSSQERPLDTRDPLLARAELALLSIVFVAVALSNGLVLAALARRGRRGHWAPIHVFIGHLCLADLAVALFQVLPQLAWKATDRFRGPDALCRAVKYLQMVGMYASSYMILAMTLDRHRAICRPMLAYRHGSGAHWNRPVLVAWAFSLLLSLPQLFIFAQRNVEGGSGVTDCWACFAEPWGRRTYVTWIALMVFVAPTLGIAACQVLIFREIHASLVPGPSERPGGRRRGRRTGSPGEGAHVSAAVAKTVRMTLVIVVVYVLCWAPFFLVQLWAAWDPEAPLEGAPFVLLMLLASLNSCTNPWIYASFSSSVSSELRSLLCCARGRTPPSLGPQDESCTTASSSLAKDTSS

Molecule | Fgrains (average fluorescent intensity of identified grains of arrestin-GFP localization per cell), Stimulated against Basal control wells, B2AR CO2 plate [1] [Fgrains] | Max Rsp (change between fitted maximum and fitted minimum Fgrains) [2, 4] | Min (fitted minimum Fgrains) [2, 4] | slope of concentration-response curve [2, 4] | Max Rsp (change between fitted maximum and fitted minimum Fgrains) [2, 5] | Min (fitted minimum Fgrains) [2, 5] | slope of concentration-response curve [2, 5] | EC50 [2, 6] [µM] | EC50 [2, 7] [µM] | indication of non-receptor-specific GPCR desensitization inhibitory activity (β2AR and V2R) | Max Rsp (change between fitted maximum and fitted minimum Fgrains) [3, 8] | Min (fitted minimum Fgrains) [3, 8] | slope of concentration-response curve [3, 8] | Max Rsp (change between fitted maximum and fitted minimum Fgrains) [3, 9] | Min (fitted minimum Fgrains) [3, 9] | slope of concentration-response curve [3, 9]
arrestin-GFP conjugate of the Renilla reniformis green fluorescent protein fused in frame to the carboxyl terminus of rat β-arrestin2 (from UniProt P29067) | 431 |  |  |  |  |  |  |  |  |  |  |  |  |  |  | 
C[n+]1cc2c3c(ccc2c2ccc4cc5c(cc4c21)OCO5)OCO3 [Sanguinarine Chloride (S5890), Sanguinarine Chloride] |  | 312 | 108 | 3.3 | 340 | 61 | 1.3 | 7 | 7.7 | non-receptor-specific GPCR desensitization inhibitory activity | 546 | 27 | 2.1 | 533 | 27 | 2.0
C[n+]1cc2c3c(ccc2c2ccc4cc5c(cc4c21)OCO5)OCO3 [Sanguinarine Chloride (LOPAC), Sanguinarine Chloride] |  | 350 | 85 | 1.6 | 330 | 76 | 1.8 | 3.3 | 2.8 | non-receptor-specific GPCR desensitization inhibitory activity | 519 | 63 | 2.6 | 508 | 45 | 2.3
